Reference: US8367873B2, “Phenyl-substituted bicyclooctane-1,3-dione derivatives” (Bayer Cropscience AG, priority 2008, dated 2013)

What was measured:
Assay type in all cases: in vivo
Alopecurus myosuroides [1] = experiment: Herbicidal pre-emergence action; conditions: pre-emergence method, 80 g/ha, greenhouse, visual assessment vs untreated controls
From the text: (§1) Seeds of monocotylidonous and dicotylidonous weed and crop plants are placed in sandy loam in wood fibre pots and covered with soil. The test compounds, formulated in the form of wettable powders (WP), are then, as an aqueous suspension with a water application rate of 600 l/ha (converted), with 0.2% of wetting agent added, applied to the surface of the covering soil in different amounts.
(§2) After the treatment, the pots are placed in a greenhouse and kept under good growth conditions for the test plants. The visual assessment of the emergence damage on the test plants is carried out after a trial period of three weeks by comparison with the untreated controls (herbicidal effect in percent: 100% effect=the plants have died, 0% effect=like control plants).

Echinocloa crus-galli [2] = experiment: Herbicidal pre-emergence action; conditions: pre-emergence method, 80 g/ha, greenhouse, visual assessment vs untreated controls
From the text: as §1, §2

Setaria viridis [3] = experiment: Herbicidal pre-emergence action; conditions: pre-emergence method, 80 g/ha, greenhouse, visual assessment vs untreated controls
From the text: as §1, §2

Lolium multiflorum [4] = experiment: Herbicidal pre-emergence action; conditions: pre-emergence method, 80 g/ha, greenhouse, visual assessment vs untreated controls
From the text: as §1, §2

[5] = system: monocotylidonous and dicotylidonous weed and crop plants; experiment: Herbicidal pre-emergence action (other test plants); conditions: pre-emergence method, 80 g/ha, greenhouse, visual assessment vs untreated controls
From the text: as §1, §2

Alopecurus myosuroides [6] = experiment: Herbicidal post-emergence action; conditions: post-emergence method, 80 g/ha
Summary of the method: (§3)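 One-leaf-stage greenhouse plants sprayed with WP at graded amounts (600 l/ha, 0.2% wetting agent); ~3 wk later, visual % effect rated vs untreated controls, 100% = dead, 0% = like control.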

Echinocloa crus-galli [7] = experiment: Herbicidal post-emergence action; conditions: post-emergence method, 80 g/ha
Summary of the method: as §3

Setaria viridis [8] = experiment: Herbicidal post-emergence action; conditions: post-emergence method, 80 g/ha
Summary of the method: as §3

Lolium multiflorum [9] = experiment: Herbicidal post-emergence action; conditions: post-emergence method, 80 g/ha
Summary of the method: as §3

[10] = system: monocotylidonous and dicotylidonous weed and crop plants; experiment: Herbicidal post-emergence action (other test plants); conditions: post-emergence method, 80 g/ha
Summary of the method: as §3

| SMILES | herbicidal effect ALOMY (Alopecurus myosuroides [1]) [%] | herbicidal effect ECHCG (Echinocloa crus-galli [2]) [%] | herbicidal effect SETVI (Setaria viridis [3]) [%] | herbicidal effect LOLMU (Lolium multiflorum [4]) [%] | herbicidal effect AVEFA [5] [%] | herbicidal effect against ALOMY (Alopecurus myosuroides) (Alopecurus myosuroides [6]) [%] | herbicidal effect against ECHCG (Echinochloa crus-galli) (Echinocloa crus-galli [7]) [%] | herbicidal effect against SETVI (Setaria viridis) (Setaria viridis [8]) [%] | herbicidal effect against LOLMU (Lolium multiflorum) (Lolium multiflorum [9]) [%] | herbicidal effect against AVEFA (Avena fatua) [10] [%] |
| --- | --- | --- | --- | --- | --- | --- | --- | --- | --- | --- |
| CCOC(=O)OC1=C(c2c(CC)cc(C)cc2CC)C(=O)C2CC3(CC12)OCC(C)(C)CO3 (racemic) [I-c-6] | 50 | 90 | 60 | 80 | 10 |  |  |  |  |  |
| C=C1CC2C(=O)C(c3c(C)cc(C)cc3OC)=C([O-])C2C1.[Na+] (centres unmarked) [I-f-22] | 80 |  | 100 | 80 | 70 | 30 | 100 | 100 | 80 | 40 |
| Cc1cc(C)c(C2=C(O)C3CC4(CC3C2=O)OCC=CCO4)c(C)c1 (centres unmarked) [I-a-41] | 60 | 50 |  | 100 | 60 | 100 | 90 | 100 | 100 | 40 |
| CCc1cc(C)cc(CC)c1C1=C(OC(=O)C(C)C)C2CC3(CC2C1=O)OC(C)CC(C)O3 (centres unmarked) [I-b-15] | 80 | 100 |  | 80 | 50 | 100 | 100 | 100 | 100 | 90 |
| CCc1cc(C)cc(C)c1C1=C(OC(=O)C(C)C)C2CC3(CC2C1=O)OCCCCO3 (centres unmarked) [I-b-77] | 60 |  | 60 | 90 | 40 | 100 | 100 | 90 | 100 | 60 |
| CCc1cc(C)cc(CC)c1C1=C(OC(=O)C(C)C)C2CC3(CC2C1=O)OCCCO3 (centres unmarked) [I-b-29] |  | 100 | 80 | 100 | 70 | 100 | 100 | 100 | 100 | 90 |
| CCc1cc(C)cc(CC)c1C1=C(O)[C@H]2CC(=NOC3CC3)C[C@H]2C1=O (relative stereo) [I-a-30] | 80 |  | 70 | 70 | 0 | 90 | 100 | 50 | 90 | 0 |
| CCc1cc(C)cc(CC)c1C1=C(OC(=O)OC)C2CC3(CC2C1=O)OCCCO3 (centres unmarked) [I-c-35] | 80 |  | 70 | 100 | 70 | 100 | 100 | 100 | 100 | 100 |
| CCc1cc(C)cc(CC)c1C1=C(OC(=O)C(C)(C)C)C2CC3(CC2C1=O)OCCCO3 (centres unmarked) [I-b-27] |  | 100 | 70 | 100 | 70 | 100 | 100 | 100 | 100 | 100 |
| CCOC(=O)OC1=C(c2c(CC)cc(C)cc2CC)C(=O)C2CC3(CC12)OCC(OCc1ccccc1)CO3 (centres unmarked) [I-c-28] | 90 | 100 | 50 |  | 60 | 100 | 100 | 100 | 100 | 100 |
| CCc1cc(C)cc(CC)c1C1=C(OC(=O)OC)C2CC3(CC2C1=O)OC(C)CC(C)O3 (mixture of isomers) [I-c-24] | 90 | 70 | 70 | 100 |  | 100 | 100 | 100 | 100 | 80 |
| Cc1cc(C)c(C2=C(OC(=O)C(C)C)C3CC4(CC3C2=O)OCC=CCO4)c(C)c1 (centres unmarked) [I-b-42] |  | 60 | 90 | 100 | 70 | 100 | 100 | 100 | 100 | 80 |
